# Biological target: T1, hITK enzyme (FLAG-tagged full-length hITK) (Homo sapiens, UniProt Q08881)
# T1 construct: strongly expressing FLAG-tagged full-length hITK in Sf9 cells; FLAG; made in house; host or cells: Sf9 insect cells (ITK); Escherichia coli (GST-SLP76 substrate)
# T1 sequence (Q08881 1-620): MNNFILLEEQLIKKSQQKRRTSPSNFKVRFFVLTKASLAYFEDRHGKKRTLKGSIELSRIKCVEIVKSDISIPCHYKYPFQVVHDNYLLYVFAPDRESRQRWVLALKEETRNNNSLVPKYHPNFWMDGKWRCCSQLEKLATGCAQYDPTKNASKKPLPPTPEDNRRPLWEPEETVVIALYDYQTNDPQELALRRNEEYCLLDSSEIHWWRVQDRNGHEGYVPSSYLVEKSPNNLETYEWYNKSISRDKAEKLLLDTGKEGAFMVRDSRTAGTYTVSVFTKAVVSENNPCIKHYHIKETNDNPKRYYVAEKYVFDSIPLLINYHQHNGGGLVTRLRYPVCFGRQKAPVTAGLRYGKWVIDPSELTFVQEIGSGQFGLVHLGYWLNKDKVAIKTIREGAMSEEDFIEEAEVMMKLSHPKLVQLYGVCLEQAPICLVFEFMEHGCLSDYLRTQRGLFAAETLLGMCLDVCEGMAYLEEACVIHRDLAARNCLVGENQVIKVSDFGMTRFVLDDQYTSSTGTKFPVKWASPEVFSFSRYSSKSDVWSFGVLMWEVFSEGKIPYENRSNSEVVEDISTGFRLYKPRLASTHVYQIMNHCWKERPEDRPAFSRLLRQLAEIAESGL
# Assay: ITK inhibitory activity (HTRF kinase assay, biotinylated GST-SLP76 substrate)
# Type: biochemical
# Details: IC50 calculated from the 2 test compound concentrations sandwiching 50% ITK inhibitory rate
# Procedure, shortened: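 Sf9-expressed hITK (50 ng/mL enzyme solution) reacted 10 min at RT in MOPS pH 7.0, 10 mmol/L MgCl2, 1 mmol/L DTT with E. coli SLP76 aa95–175 substrate; substrate solution held 100 µmol/L ATP (6 µmol/L for selected compounds). HTRF 665/620 ratio, blank-corrected; IC50 interpolated between two concentrations bracketing 50% inhibition.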
row,Structure (SMILES),IC50
1,CCN(C(=O)CN1CC(C)(C)OCC1=O)c1ccc2cc(-c3n[nH]c4c3CCC(C)(C)C4)[nH]c2c1 [Example 277],1 nM
2,COCCN(C(=O)CN1CC(C)(C)OCC1=O)c1ccc2cc(-c3n[nH]c4c3CCC(C)(C)C4)[nH]c2c1 [Example 278],1 nM
3,CCN(C(=O)CN1C[C@H](C)OCC1=O)c1ccc2cc(-c3n[nH]c4c3CCC(C)(C)C4)[nH]c2c1 [Example 279],< 1 nM
4,COCCN(C(=O)CN1C[C@H](C)OCC1=O)c1ccc2cc(-c3n[nH]c4c3CCC(C)(C)C4)[nH]c2c1 [Example 280],2 nM
5,COCCN(C(=O)CN1CCCCCC1=O)c1ccc2cc(-c3n[nH]c4c3CCC(C)(C)C4)[nH]c2c1 [Example 281],1 nM
6,CCN(C(=O)CN1C[C@@H](C)OCC1=O)c1ccc2cc(-c3n[nH]c4c3CCC(C)(C)C4)[nH]c2c1 [Example 282],2 nM
7,COCCN(C(=O)CN1C[C@@H](C)OCC1=O)c1ccc2cc(-c3n[nH]c4c3CCC(C)(C)C4)[nH]c2c1 [Example 283],2 nM
8,CCN(C(=O)CN1CCC(C)(C)C1=O)c1ccc2cc(-c3n[nH]c4c3CCC(C)(C)C4)[nH]c2c1 [Example 284],1 nM
9,COCCN(C(=O)CN1CCC(C)(C)C1=O)c1ccc2cc(-c3n[nH]c4c3CCC(C)(C)C4)[nH]c2c1 [Example 285],2 nM
10,COCCN(C(=O)CN1CCOCC1=O)c1ccc2cc(-c3n[nH]c4c3CCC(C)(C)C4)[nH]c2c1 [Example 286],2 nM
11,COCCN(C(=O)CN1CCCCC1=O)c1ccc2cc(-c3n[nH]c4c3CCC(C)(C)C4)[nH]c2c1 [Example 287],1 nM
12,CCN(C(=O)CN1CCOCC1=O)c1ccc2cc(-c3n[nH]c4c3CCC(C)(C)C4)[nH]c2c1 [Example 288],1 nM
13,CCN(C(=O)CN1CCCCC1=O)c1ccc2cc(-c3n[nH]c4c3CCC(C)(C)C4)[nH]c2c1 [Example 289],< 1 nM
14,CCN(C(=O)CC(C)(C)O)c1ccc2cc(-c3n[nH]c4c3CCC(C)(C)C4)[nH]c2c1 [Example 290],8 nM
15,CCN(C(=O)CN(C)C(C)=O)c1ccc2cc(-c3n[nH]c4c3CCC(C)(C)C4)[nH]c2c1 [Example 291],1 nM
16,CCC(=O)N(C)CC(=O)N(CC)c1ccc2cc(-c3n[nH]c4c3CCC(C)(C)C4)[nH]c2c1 [Example 292],2 nM
17,CC1(C)CCc2c(-c3cc4cc(C(=O)Nc5ccccc5)ccc4[nH]3)n[nH]c2C1 [Example 293],263 nM
18,CNC(=O)c1ccc2[nH]c(-c3n[nH]c4c3CCC(C)(C)C4)cc2c1 [Example 294],51 nM
19,CN(C(=O)c1ccc2[nH]c(-c3n[nH]c4c3CCC(C)(C)C4)cc2c1)c1ccccc1 [Example 295],138 nM
20,CN(C)C(=O)c1ccc2[nH]c(-c3n[nH]c4c3CCC(C)(C)C4)cc2c1 [Example 296],58 nM
21,CC1(C)CCc2c(-c3cc4cc(C(N)=O)ccc4[nH]3)n[nH]c2C1 [Example 297],48 nM
22,CC1(C)CCc2c(-c3cc4cc(C(=O)N5CCOCC5)ccc4[nH]3)n[nH]c2C1 [Example 298],44 nM
23,CC(NC(=O)c1ccc2[nH]c(-c3n[nH]c4c3CCC(C)(C)C4)cc2c1)C(C)(C)C (stereo not drawn) [Example 299],74 nM
24,CC(N(C)C(=O)c1ccc2[nH]c(-c3n[nH]c4c3CCC(C)(C)C4)cc2c1)C(C)(C)C (stereo not drawn) [Example 300],221 nM
25,CC1(C)CCc2c(-c3cc4cc(C(=O)N5CCCC(O)C5)ccc4[nH]3)n[nH]c2C1 (stereo not drawn) [Example 301],37 nM
26,CC1(C)CCc2c(-c3cc4cc(C(=O)N5CCC(O)CC5)ccc4[nH]3)n[nH]c2C1 [Example 302],39 nM
27,CC1(C)CCc2c(-c3cc4cc(C(=O)NCCO)ccc4[nH]3)n[nH]c2C1 [Example 303],33 nM
28,CN(CCO)C(=O)c1ccc2[nH]c(-c3n[nH]c4c3CCC(C)(C)C4)cc2c1 [Example 304],27 nM
29,COC(=O)CNC(=O)c1ccc2[nH]c(-c3n[nH]c4c3CCC(C)(C)C4)cc2c1 [Example 305],13 nM
30,CC1(C)CCc2c(-c3cc4cc(C(=O)NCC(=O)O)ccc4[nH]3)n[nH]c2C1 [Example 306],27 nM

# Source: US8299070B2, “Indole compounds and pharmaceutical use thereof” (Japan Tobacco Inc., priority 2009, dated 2012)
